US7973135B2, “Compositions and methods for targeting cancer-specific transcription complexes” (Oncotx, Inc., priority 2006, dated 2011)

Legend:
Type in all cases: cell-based, human
[1] = tested on: WM 266-4 cells; assay: Apoptosis (Annexin V-Cy3 kit) of melanoma cells treated with peptides; conditions: for Apoptosis, result in words (summary of Table 2): 10 μM; for Apoptosis 7 days/%: peptide 10 μM
Protocol: (§1) Human melanoma cell lines SK-MEL-28 and WM-266-4 were obtained from the American Type Culture Collection (ATCC; Manassas, Va.; SK-MEL-28 deposited by T. Takehashi and subject to release terms set by The Memorial Sloan-Kettering Cancer Center; WM-266-4 deposited by M. Herlyn). Cells were cultured according to recommendations of ATCC (DMEM, 10% FCS, penicillin+streptomycin) and used in experiments after two passages in the laboratory. Cells were grown in 24 well plates, each treatment in triplicates. Cells were plated 16 hours prior treatments started. Peptides were added to the media, and media was changed every day during 7 day experiment. CPP concentration was 10 μM.
(§2) Apoptosis was analyzed using Biovision Annexin V-Cy3 Apoptosis Kit according to manufacturer's protocols.
(§3) Effects of peptide drug candidates BAF57 P12 and TRAP100 P05 on cell proliferation and apoptosis were analyzed using human melanoma cell lines SK-MEL-28 and WM 266-4. Therapeutic peptides were added at a concentration of 10 μM directly to culture media. Internalization and translocation of the therapeutic peptide(s) into the cell nucleus was studied using fluorescein labeled peptides. […] As controls we used scrambled peptides. […] Simultaneous incubation of melanoma cells with both peptides caused complete inhibition of proliferation and induction of apoptosis in almost all treated cells.

[2] = tested on: SK-MEL-28 cells; assay: as above; conditions: for Apoptosis, result in words (summary of Table 2) / Apoptosis 7 days/%: SK-MEL-28; for Apoptosis, result in words (summary of Table 2): 10 μM; for Apoptosis 7 days/%: peptide 10 μM; for Apoptosis of melanoma cells in vitro, result in words (library screening): screening of peptide libraries using SK-MEL-28
Protocol: as §1, §2, §3

[3] = tested on: WM 266-4 cells; assay: Cell proliferation (cell counting) of melanoma cells treated with peptides; conditions: for Proliferation, result in words (summary of Table 2): 10 μM; for Cell Count 7 days: peptide 10 μM in media, start count 10, 7 days
Protocol: as §1
(§4) For cell counting, cells were trypsinized (0.25% Trypsin, 2 mM EDTA) in Ca+2, Mg+2 free PBS. Cells were precipitated and resuspended in 100 μl of PBS, and 5 μl were removed for counting
as §3

[4] = tested on: SK-MEL-28 cells; assay: as above; conditions: for Proliferation, result in words (summary of Table 2) / Cell Count 7 days: SK-MEL-28; for Proliferation, result in words (summary of Table 2): 10 μM; for Cell Count 7 days: peptide 10 μM in media, start count 10; for Growth of melanoma cells in vitro, result in words (library screening): screening of peptide libraries using SK-MEL-28
Protocol: as §1, §4, §3

## PKKRKVRRRRRRRPQMQQNVFQYPGAGMVPQGEANF (listed as Homo sapiens) [TRAP100 P05, NLS-CPP-interfering peptide targeting mediator complex containing cancer specific isoform of MED24/TRAP100]
[1]
  Apoptosis, result in words (summary of Table 2): induce apoptosis
  Apoptosis 7 days/%: 78%
[2]
  Apoptosis, result in words (summary of Table 2): induce apoptosis
  Apoptosis 7 days/%: 78%
  Apoptosis of melanoma cells in vitro, result in words (library screening): stimulate apoptosis
[3]
  Proliferation, result in words (summary of Table 2): suppress significantly proliferation
  Cell Count 7 days: 15
[4]
  Proliferation, result in words (summary of Table 2): suppress significantly proliferation
  Cell Count 7 days: 12
  Growth of melanoma cells in vitro, result in words (library screening): inhibit growth of melanoma cells

## PKKRKVRRRRRRRNDRLSDGDSKYSQTSHKLVQLL (listed as Homo sapiens) [BAF57 P12, NLS-CPP-interfering peptide targeting chromatin modifying complex containing cancer specific isoform of BAF57]
[1]
  Apoptosis, result in words (summary of Table 2): induce apoptosis
  Apoptosis 7 days/%: 59%
[2]
  Apoptosis, result in words (summary of Table 2): induce apoptosis
  Apoptosis 7 days/%: 65%
  Apoptosis of melanoma cells in vitro, result in words (library screening): stimulate apoptosis
[3]
  Proliferation, result in words (summary of Table 2): suppress significantly proliferation
  Cell Count 7 days: 17
[4]
  Proliferation, result in words (summary of Table 2): suppress significantly proliferation
  Cell Count 7 days: 16
  Growth of melanoma cells in vitro, result in words (library screening): inhibit growth of melanoma cells
